Measured values reported in DBAASP.
In brackets after ≈: the same amount, converted by molar mass. Several values for one entry are separate records, joined by “and”; a condition that tells them apart may be missing. Equal entries are not always repeated. Values belong to the compound of their own block, whether it stands above or below them.

Legend:
Assay in all cases: ≥ marks a high value that may be exact or a test limit, other limits are often not marked, values filed in µg/mL are converted to µM
[1] = test system: Staphylococcus aureus ATCC 25923
Yersinia enterocolitica = test system: Yersinia enterocolitica
[2] = test system: Candida albicans ATCC 10231
[3] = test system: Candida glabrata ATCC 2001
Candida krusei ATCC 6258 = test system: Candida krusei ATCC 6258
[4] = test system: Candida parapsilosis ATCC 90018
[5] = test system: Candida tropicalis ATCC 750
[6] = test system: Escherichia coli ATCC 25922
[7] = test system: Pseudomonas aeruginosa ATCC 27853
[8] = test system: Staphylococcus aureus ATCC 29213
[9] = test system: Bifidobacterium longum subsp. infantis
Escherichia coli = test system: Escherichia coli
Staphylococcus aureus = test system: Staphylococcus aureus
Candida albicans DBFIQ 1 = test system: Candida albicans DBFIQ 1
Candida albicans PEEC 2 = test system: Candida albicans PEEC 2
[10] = test system: Candida tropicalis DBFIQ 3
[11] = test system: Enterococcus faecalis ATCC 29212
[12] = test system: Escherichia coli ATCC 35218
[13] = test system: Staphylococcus aureus BSF FBCB1313
[14] = test system: Candida albicans TIMM 0144
[15] = test system: Trichophyton mentagrophytes TIMM 1189
[16] = test system: Acinetobacter baumannii 97830
[17] = test system: Acinetobacter baumannii 9931
[18] = test system: Acinetobacter baumannii ATCC 19606(CipR)
[19] = test system: Acinetobacter baumannii ATCC 19606(GenR)
[20] = test system: Acinetobacter baumannii ATCC 19606(ImiR)
[21] = test system: Acinetobacter baumannii ATCC 19606(RifR)
[22] = test system: Acinetobacter baumannii ATCC 19606
[23] = test system: Bacillus subtilis ATCC 23857
Escherichia coli 780 = test system: Escherichia coli 780
Escherichia coli 804 = test system: Escherichia coli 804
[24] = test system: Escherichia coli ATCC 25922(CipR)
[25] = test system: Escherichia coli ATCC 25922(GenR)
[26] = test system: Escherichia coli ATCC 25922(ImiR)
[27] = test system: Escherichia coli ATCC 25922(RifR)
[28] = test system: Klebsiella pneumoniae ATCC 700603(CipR)
[29] = test system: Klebsiella pneumoniae ATCC 700603(GenR)
[30] = test system: Klebsiella pneumoniae ATCC 700603(ImiR)
[31] = test system: Klebsiella pneumoniae ATCC 700603(RifR)
[32] = test system: Klebsiella pneumoniae ATCC 700603
[33] = test system: Pseudomonas aeruginosa 50
[34] = test system: Pseudomonas aeruginosa ATCC 27853(CipR)
[35] = test system: Pseudomonas aeruginosa ATCC 27853(GenR)
[36] = test system: Pseudomonas aeruginosa ATCC 27853(ImiR)
[37] = test system: Pseudomonas aeruginosa ATCC 27853(RifR)
[38] = test system: Pseudomonas aeruginosa ATCC 9027
[39] = test system: Staphylococcus aureus 113
Staphylococcus aureus 75 = test system: Staphylococcus aureus 75
[40] = test system: Staphylococcus epidermidis ATCC 12228
Bacillus subtilis PY22 = test system: Bacillus subtilis PY22
[41] = test system: Escherichia coli DH5alpha

MIC [2]: 62.5 µM (≈ 91.2 µg/mL)
MIC [3]: ≥ 250 µM
MIC (Candida krusei ATCC 6258): ≥ 62.5 µM
MIC [4]: ≥ 125 µM
MIC [5]: 31.2 µM (≈ 45.5 µg/mL)
MIC [6]: 62.5 µM (≈ 91.2 µg/mL)
MIC [7]: 62.5 µM (≈ 91.2 µg/mL)
MIC [8]: 31.2 µM (≈ 45.5 µg/mL)
SMILES: CC[C@H](C)[C@H](NC(=O)CN)C(=O)N[C@@H](CC(C)C)C(=O)N[C@@H](CC(=O)O)C(=O)N[C@H](C(=O)N[C@@H](CCCCN)C(=O)N[C@@H](CC(N)=O)C(=O)N[C@@H](CCCCN)C(=O)N[C@H](C(=O)N[C@@H](CO)C(=O)N[C@@H](CC(N)=O)C(=O)N[C@@H](CC(C)C)C(=O)N[C@@H](Cc1ccccc1)C(N)=O)C(C)C)[C@@H](C)CC [GILDIKNKVSNLF]

MIC (Candida albicans DBFIQ 1): ≥ 480 µM
MIC (Candida albicans PEEC 2): ≥ 480 µM
MIC [10]: ≥ 480 µM
MIC [11]: > 240 µM
MIC [12]: ≥ 240 µM
MIC [7]: > 240 µM
MIC [1]: > 240 µM
MIC [13]: ≥ 240 µM
SMILES: CC(C)C[C@H](NC(=O)[C@@H](N)CCCCN)C(=O)N[C@@H](Cc1ccccc1)C(=O)N[C@@H](CCCCN)C(N)=O [KLFK]

MIC [16]: 4 µM (≈ 9.48 µg/mL)
MIC [17]: 8 µM (≈ 19 µg/mL)
MIC [18]: 8 µM (≈ 19 µg/mL)
MIC [19]: 16 µM (≈ 37.9 µg/mL)
MIC [20]: 16 µM (≈ 37.9 µg/mL)
MIC [21]: 8 µM (≈ 19 µg/mL)
MIC [22]: 8 µM (≈ 19 µg/mL)
MIC [23]: 2 µM (≈ 4.74 µg/mL)
MIC (Escherichia coli 780): 4 µM (≈ 9.48 µg/mL)
MIC (Escherichia coli 804): 16 µM (≈ 37.9 µg/mL)
MIC [24]: 8 µM (≈ 19 µg/mL)
MIC [25]: 8 µM (≈ 19 µg/mL)
MIC [26]: 16 µM (≈ 37.9 µg/mL)
MIC [27]: 16 µM (≈ 37.9 µg/mL)
MIC [28]: 16 µM (≈ 37.9 µg/mL)
MIC [29]: 16 µM (≈ 37.9 µg/mL)
MIC [30]: 16 µM (≈ 37.9 µg/mL)
MIC [31]: 16 µM (≈ 37.9 µg/mL)
MIC [32]: 8 µM (≈ 19 µg/mL)
MIC [33]: 2 µM (≈ 4.74 µg/mL)
MIC [34]: 4 µM (≈ 9.48 µg/mL)
MIC [35]: ≥ 32 µM
MIC [36]: 8 µM (≈ 19 µg/mL)
MIC [37]: 4 µM (≈ 9.48 µg/mL)
MIC [7]: 4 µM (≈ 9.48 µg/mL)
MIC [38]: 4 µM (≈ 9.48 µg/mL)
MIC [39]: 2 µM (≈ 4.74 µg/mL)
MIC (Staphylococcus aureus 75): 4 µM (≈ 9.48 µg/mL)
MIC [1]: 4 µM and 8 µM
MIC [8]: 4 µM (≈ 9.48 µg/mL)
MIC [40]: 2 µM (≈ 4.74 µg/mL)
SMILES: NCCCC[C@H](NC(=O)[C@H](CCCN=C(N)N)NC(=O)[C@H](Cc1c[nH]c2ccccc12)NC(=O)[C@H](CCCCN)NC(=O)[C@H](CCCN=C(N)N)NC(=O)[C@H](Cc1c[nH]c2ccccc12)NC(=O)[C@H](CCCCN)NC(=O)[C@H](CCCN=C(N)N)NC(=O)[C@H](Cc1c[nH]c2ccccc12)NC(=O)[C@H](CCCCN)NC(=O)[C@H](CCCN=C(N)N)NC(=O)[C@H](Cc1c[nH]c2ccccc12)NC(=O)[C@H](CCCCN)NC(=O)[C@H](CCCN=C(N)N)NC(=O)[C@@H](N)Cc1c[nH]c2ccccc12)C(N)=O [WRKWRKWRKWRKWRK]

MIC (Bacillus subtilis PY22): 31.3 µM (≈ 32.8 µg/mL)
MIC [41]: ≥ 125 µM
SMILES: CC(=O)N[C@@H](CCCN=C(N)N)C(=O)N[C@@H](Cc1c[nH]c2ccccc12)C(=O)N[C@@H](CCCN=C(N)N)C(=O)N[C@@H](Cc1ccccc1)C(=O)N[C@@H](Cc1c[nH]c2ccccc12)C(=O)N[C@@H](CCCN=C(N)N)C(N)=O [RWRFWR]

Further lines, the compound ahead of its results:

SMILES: CC[C@H](C)[C@H](NC(=O)[C@H](CCC(N)=O)NC(=O)[C@H](Cc1cnc[nH]1)NC(=O)[C@@H](NC(=O)[C@@H]1CCCN1C(=O)[C@H](CC(N)=O)NC(=O)[C@H](CC(C)C)NC(=O)[C@H](CC(C)C)NC(=O)[C@H](CC(C)C)NC(=O)[C@@H](N)CCC(=O)O)[C@@H](C)O)C(=O)N[C@@H](Cc1ccc(O)cc1)C(=O)N1CCC[C@H]1C(=O)N[C@H](C(=O)N[C@H](C(=O)N[C@@H](CCC(N)=O)C(=O)N1CCC[C@H]1C(=O)N[C@@H](CC(C)C)C(=O)N[C@@H](C)C(=O)N1CCC[C@H]1C(=O)N[C@H](C(=O)O)C(C)C)[C@@H](C)O)C(C)C [ELLLNPTHQIYPVTQPLAPV]
MIC [1]: 89.1 µM (≈ 200 µg/mL)
MIC (Yersinia enterocolitica): ≥ 89.1 µM

SMILES: CC[C@H](C)[C@H](NC(=O)[C@@H](NC(=O)[C@@H]1CCCN1C(=O)[C@H](CC(C)C)NC(=O)[C@H](C)NC(=O)[C@H](CO)NC(=O)[C@@H](NC(=O)[C@@H](N)CCSC)[C@@H](C)O)[C@@H](C)CC)C(=O)N[C@@H](CCC(N)=O)C(=O)N[C@@H](CCCCN)C(=O)O [MTSALPIIQK]
MIC [9]: ≥ 2720 µM
MIC (Escherichia coli): > 2720 µM
MIC (Staphylococcus aureus): > 2720 µM

SMILES: CC[C@H](C)[C@H](NC(=O)[C@@H]1CSSC[C@H](NC(=O)[C@H](CCCCN)NC(=O)[C@@H](N)[C@@H](C)O)C(=O)N[C@@H](Cc2ccccc2)C(=O)N[C@@H](CCC(N)=O)C(=O)N[C@@H](Cc2c[nH]c3ccccc23)C(=O)N[C@@H](CCC(N)=O)C(=O)N[C@@H](CCCN=C(N)N)C(=O)N[C@@H](CC(N)=O)C(=O)N[C@@H](CCSC)C(=O)N[C@@H](CCCN=C(N)N)C(=O)N[C@@H](CCCCN)C(=O)N[C@@H](C(C)C)C(=O)N[C@@H](CCCN=C(N)N)C(=O)NCC(=O)N2CCC[C@H]2C(=O)N2CCC[C@H]2C(=O)N[C@@H](C(C)C)C(=O)N[C@@H](CO)C(=O)N1)C(=O)N[C@@H](CCCCN)C(=O)N[C@@H](CCCN=C(N)N)C(=O)N[C@@H](CC(=O)O)C(=O)N[C@@H](CO)C(=O)O [TKCFQWQRNMRKVRGPPVSCIKRDS]
MIC [14]: ≥ 33.1 µM
MIC [6]: > 128 µM
MIC [15]: 16.5 µM (≈ 50 µg/mL)
